# Tests used:
# [1] = system: Cox2; experiment: Cox2 protein level by Western blot in TNFα-induced HaCaT cells; format: cell-based, human; conditions: TNFα 20 nM, peptide at 5 μM and 50 μM, 24 hours, compared to group not treated with TNFα
# Experimental: In order to confirm the anti-inflammatory effect of treatment with the peptides of the present invention having the amino acid sequence of SEQ ID NO: 1, inflammation was induced in HaCaT cells, which are human keratinocytes, and the expression level of Cox2 protein was confirmed. In order to induce inflammation, the cells were treated with TNFα, which is an inflammation-inducing cytokine, and since Cox2 is an enzyme involved in the synthesis of prostaglandins corresponding to an inflammation-related protein, it is possible to confirm whether inflammation is inhibited by measuring the expression level of Cox2.
# HaCaT cells were dispensed into a 24-well plate at a concentration of 3× 10^5 cells/well and cultured until the next day. The medium was replaced with serum-free medium, and after 4 hours, the cells were treated with TNFα and the peptide of the present invention and cultured again for another 24 hours. In order to induce inflammation, the cells were treated with TNFα at 20 nM, and treated with the peptide at 5 μM and 50 μM, respectively. […] In order to perform Western blotting, the amount of Cox2 protein was measured using an anti-Cox2 antibody (Cell Signaling Technology, USA). […]
# [2] = system: IL-6; experiment: IL-6 mRNA level by RT-PCR in LPS-induced mouse splenocytes; format: cell-based; conditions: LPS 2 μg/mL, peptide at 5 μM and 50 μM, 24 hours, compared to group not treated with the peptide
# Experimental: Inflammation was induced in mouse splenocytes, and the expression levels of TNFα, and IL-6 genes, which is the inflammatory cytokines were confirmed. In order to induce inflammation, the cells were treated with LPS, an inflammation-inducing antigen, and since TNFα corresponds to a signaling protein associated with inflammation, and IL-6 corresponds to a cytokine that promotes inflammation, the degree of inflammation can be confirmed by measuring the expression levels of TNFα and IL-6 genes.
# Mouse splenocytes were dispensed into a 24-well plate at a concentration of 1×10^7 cells/well and cultured until the next day. The medium was replaced with serum-free medium, and after 3 hours, the cells were treated with LPS and the peptide of the present invention and then cultured again for another 24 hours. In order to induce inflammation, the cells were treated with LPS at 2 μg/mL, and the peptide at […] and 50 μM, respectively. […] After quantifying the amount of isolated RNA, cDNA was synthesized using a cDNA synthesis kit (Intron, Korea), PCR was performed using a PCR premix (Intron, Korea) and primers for TNFα, and IL-6. […]
# [3] = system: TNFα; experiment: TNFα secretion by ELISA in LPS-induced mouse splenocytes; format: cell-based; conditions: LPS 2 μg/mL, peptide at 5 μM and 50 μM, 24 hours
# Experimental: (§1) Inflammation was induced in mouse splenocytes, and the secretion amounts of inflammatory cytokines TNFα, IL-1β, and IFNγ were confirmed. In order to induce inflammation, the cells were treated with an inflammation-inducing antigen, LPS, and since TNFα corresponds to a signaling protein associated with inflammation, IL-1β corresponds to a cytokine that promotes inflammation, and IFNγ also corresponds to a cytokine that promotes inflammation, the degree of inflammation can be confirmed by measuring the secretion amounts of TNFα, IL-1B, and IFNγ.
# (§2) Mouse splenocytes were dispensed into a 24-well plate at a concentration of 1×10^7 cells/well and cultured until the next day. The medium was replaced with serum-free medium, and after 4 hours, the cells were treated with LPS and the peptide of the present invention and then cultured again for another 24 hours. In order to induce inflammation, the cells were treated with LPS at 2 μg/mL, and the peptide at 5 μM and 50 μM, respectively. […]
# [4] = system: IL-1β; experiment: IL-1β secretion by ELISA in LPS-induced mouse splenocytes; format: cell-based; conditions: LPS 2 μg/mL, peptide at 5 μM and 50 μM, 24 hours
# Experimental: as §1, §2
# [5] = system: IFNγ; experiment: IFNγ secretion by ELISA in LPS-induced mouse splenocytes; format: cell-based; conditions: LPS 2 μg/mL, peptide at 5 μM and 50 μM, 24 hours
# Experimental: as §1, §2
# [6] = system: IL-17; experiment: IL-17 secretion by ELISA in mouse splenocytes induced with LPS, TGFβ and IL-23; format: cell-based; conditions: LPS 2 μg/mL, TGFβ 20 ng/ml, IL-23 20 ng/mL, 24 hours
# Source text: Inflammation was induced by treating mouse splenocytes with LPS, which is an inflammation-inducing antigen, and TGFβ and IL-23, which are inflammatory cytokines, and the secretion amounts of the inflammatory cytokines IL-17, IL-1β, and IFNγ were confirmed. The descriptions of IL-17, IL-1B, and IFNγ are the same as above.
# Mouse splenocytes were dispensed into a 24-well plate at a concentration of 1×10^7 cells/well and cultured until the next day. The medium was replaced with serum-free medium, and after 4 hours, the cells were treated with LPS, TGFβ, and IL-23 and the peptide of the present invention and then cultured again for another 24 hours. In order to induce inflammation, the cells were treated with LPS at 2 μg/mL, TGFβ at 20 ng/ml, IL-23 at 20 ng/mL, and the peptide at 5 μM and 50 μM, respectively. The mouse splenocytes in the group in which inflammation was not induced due to untreatment with LPS, TGFβ, and IL-23 (NON); the negative control group in which the cells were treated with LPS, TGFβ, and IL-23 but not treated with the peptide (NC); and the group in which the cells were treated with LPS, TGFβ, and IL-23 along with the peptide of the present invention at the same concentration as above, respectively, were reacted as described above and the cell cultures were recovered. […]
substance,measurement,setting,value
TWNS [peptide of the present invention],expression level of Cox2 protein,[1],decreased
same,mRNA expression level of IL-6,[2],decreased
same,secretion amount of TNFα,[3],decreased
same,secretion amount of IL-1β,[4],decreased
same,secretion amount of IFNγ,[5],decreased
same,secretion amount of IL-17,[6]; peptide at 5 μM,slightly increased
same,secretion amount of IL-17,[6]; peptide at 50 μM,decreased
